Test results as given in publication PMC7464270, “The Interaction of Bovine β-Lactoglobulin with Caffeic Acid: From Binding Mechanisms to Functional Complexes” (Biomolecules, 2020).

Target: T1, native bovine β-lactoglobulin (n-β-LG) (Bos taurus, UniProt P02754)
T1 construct: gene LGB; dimer prevails at physiological pH
T1 sequence (P02754 17-178): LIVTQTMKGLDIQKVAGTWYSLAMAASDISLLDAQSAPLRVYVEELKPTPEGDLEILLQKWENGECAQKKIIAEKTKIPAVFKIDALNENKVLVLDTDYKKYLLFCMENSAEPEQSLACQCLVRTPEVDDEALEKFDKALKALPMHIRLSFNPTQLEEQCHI
Experiment: intrinsic tryptophan fluorescence quenching (excitation […] nm)
Type: binding
Details: native protein treated at 25 °C (measured at 23 ± 1 °C), Tris buffer pH 8.0; double-log

Compound: O=C(O)/C=C/c1ccc(O)c(O)c1 [CA, caffeic acid]
- n-β-LG / Kb (10^6 Mol^-1): 0.72 ± 0.03 10^6 Mol^-1
